Consider one molecule from patent publication US11684610B2, “Pharmaceutical composition including 1,2-naphthoquinone derivative compound for prevention or treatment of solid cancers or blood cancers” (YUNGJIN PHARM. CO., LTD., priority 2018, dated 2023).

Usually IC50 stands for the concentration that inhibits the measured activity by half.

Common to all, as to format: cell-based, human
The test system of experiment [1] is KG1α cells. As to the kind of experiment: Cell viability in KG1α cells, WST assay. Particulars: 0.1 to 3 μM. An excerpt: (§1) The constructed cell lines were also diverse. Thus, in order to confirm the applicability to a wide range of therapeutic agents that are not therapeutic agents for specific types of acute leukemia, in the present invention, KG1α cells constructed by selecting only cells having a stem cell phenotype from KG1 cells, which are cell lines obtained from a person with acute myelogenous leukemia, were used. HL60 cells, which are cell lines obtained from a person with acute promyelocytic leukemia, and U937 cells, which are cell lines obtained from a person with histiocytic lymphoma, were used.
(§2) KG1α and HL60 cells were cultured in IMDM medium containing 20% FBS (fetal bovine serum), and U937 cells were cultured in RPMI 1640 medium containing 10% FBS. All cells were cultured in an incubator under conditions of 37° C. and 5% CO2, and subcultured once every 2 or 3 days and used in the experiment.
KG1α cells are cells resistant to idarubicin and cytarabine, which are the therapeutic agents for acute myeloid leukemia, and are refractory AML cells. KG1α cells cultured in Example 2-1 were cultured into a 96-well plate at 1×10^5 cells/well, and then cultured in an incubator at 37° C. and 5% CO2 for 16 hours or more for the stabilization of cells. […] At this time, DMSO was used as a control group. After 24 hours, each cell was treated with 10 μl of WST solution, reacted for 2 hours, and then absorbance was measured at 450 nm with a multi-scan machine, and the cell viability of KG1α cells was confirmed as shown in Table 4 below.

Experiment [2] deals with HL60 cells. As to the kind of experiment: Cell viability of HL60 cells, WST-1. Particulars: 24 hours, WST-1, FIG. 1A.
From the text: as §1, §2
(§3) The HL60 cells or U937 cells cultured in Example 2-1 were inoculated into a 96-well plate at 1×10^5 cells/well, and then for the stabilization of cells, the cells were cultured in an incubator at 37° C. and 5% CO2 for 16 hours or more. Subsequently, the compound 1 synthesized in Example 1 was treated at concentrations of 0.1, 0.5 and 1 μM, respectively, and reacted for 24 hours. […] The absorbance was then measured at 450 nm with a multi-scan machine.
On the technique in general: Tetrazolium dyes change colour on reduction, which living cells bring about.

Another experiment relates to U937 cells. As to the kind of experiment: Cell viability of U937 cells, WST-1. The conditions noted are these: 24 hours, WST-1, FIG. 1B.
From the text: as §1, §2, §3

For experiment [3], the system named is KG1α cells. As to the kind of experiment: Apoptosis or cell necrosis in KG1α cells, FACS (Annexin-V/PI) and western blot. The conditions noted are these: 0-2 μM, 24 hours, FIG. 2. The procedure:
(§4) Cell death was typically known as apoptosis or cell necrosis. Thus, in order to confirm whether the death of acute leukemia cells induced by the compound 1 of the present invention was due to apoptosis or cell necrosis, fluorescence activated cell sorting (FACS) and western blot were performed.
(§5) First, in order to conduct FACS, KG1α cells or HL60 cells cultured in […] were inoculated in a 6-well plate at 1×10^7 cells/well, and for the stabilization of cells, the cells were cultured in an incubator at 37° C. and 5% CO2 for 16 hours or more. Subsequently, the compound 1 was treated at concentrations of 0, 0.1, 0.5, 1 and 2 μM, respectively, and cultured for 24 hours, and then the cells were recovered and washed with cold PBS. Only 1×10^6 cells were taken and resuspended with PBS, and then stained with Annexin-V (green fluorescence), which increases during apoptosis, and Pi (propidium iodide, red fluorescence), which […]. The degree of the two indicators were quantified by FACS, the FACS results for KG1α cells are shown in FIG. 2A, and the FACS results for HL60 cells are shown in FIG. 3A.
(§6) Next, in order to perform western blot, KG1α cells or HL60 cells cultured in Example 2-1 were inoculated into a 6-well plate at 1×10^7 cells/well. In order to stabilize the cells, the cells were cultured for 16 hours or more in an incubator at 37° C. and 5% CO2. […]

Experiment [4] relates to HL60 cells. As to the kind of experiment: Apoptosis or cell necrosis in HL60 cells, FACS (Annexin-V/PI) and western blot. Particulars: 0-2 μM, 24 hours, FIG. 3. The procedure: as §4, §5, §6
On the technique in general: In western blotting, separated proteins are transferred to a membrane and probed.

In experiment [5] the test system is HepG2 (hepatocellular carcinoma). As to the kind of experiment: Cell viability in solid cancer cells, WST assay, HepG2. The conditions noted are these: Homo sapiens, HepG2, 1 to 30 μM, 6 hours. An excerpt:
(§7) To confirm the possibility of use as a therapeutic agent for solid cancer, A549 cell line obtained from a […] with lung carcinoma, Hela cell line obtained from a person with cervix adenocarcinoma, HepG2 cell line obtained from a child with hepatocellular carcinoma, MCF7 cell line obtained from a person with breast adenocarcinoma, and Beas-2B cell line obtained from a normal lung for comparison with solid cancer cell line were used.
(§8) The A549 (lung carcinoma), Hela (cervix adenocarcinoma), HepG2 (hepatocellular carcinoma), MCF7 (breast carcinoma), and Beas-2B (normal lung) cell lines were used in DMEM medium containing 10% FBS, subcultured once every 2 days in an incubator under conditions of 37° C. and 5% CO2 and used in the experiment.
(§9) A549 (lung carcinoma), Hela (cervix adenocarcinoma), HepG2 (hepatocellular carcinoma), MCF7 (breast carcinoma), and Beas-2B (normal lung) cells cultured in Example 6-1 were inoculated into a 96-well plated at 1×10^4 cells/well, and then for the stabilization of cells, the cells were cultured in an incubator at 37° C. and 5% CO2 for 16 hours or more. Subsequently, among the compounds synthesized in Example 1, the compounds 1, 10 and 72 were treated at a concentration of 1 to 30 μM, and then cultured for 6 hours. At this time, DMSO and β-lapachone were used as the control group. After 4 hours of incubation, 10 μl of WST solution was added to each cell, the reaction was carried out for 2 hours, and the absorbance was measured at 450 nm with a multi-scan machine. The cell viabilities of A549 (lung carcinoma), Hela (cervix adenocarcinoma), HepG2 (hepatocellular carcinoma) and MCF7 (breast carcinoma) cells are shown in Table 4 and FIG. 6 below.

For the next experiment, the system named is MCF7 (breast carcinoma). As to the kind of experiment: Cell viability in solid cancer cells, WST assay, MCF7. Particulars: Homo sapiens, MCF7, 1 to 30 μM, 6 hours.
From the text: as §7, §8, §9

As to `CC(C)c1nc2c([nH]1)C(=O)C(=O)c1ccccc1-2` [compound 1], the IC50 with KG1α cells [1] (24 hours) was 0.5 µM; in the experiment with KG1α cells [1] (Homo sapiens, KG-1, 24 h), 0.5 to 1 µM; in experiment [5] it was 10.1 µM; in the experiment with MCF7 (breast carcinoma), 14.4 µM. Further, the “cell killing effect (cell viability), HL60 cells” value in the experiment with HL60 cells [2] was “concentration-dependent cell killing effects”. The “cell killing effect (cell viability), U937 cells” value with U937 cells was “concentration-dependent cell killing effects”. Moreover, the “apoptosis or cell necrosis, KG1α cells” value in the experiment with KG1α cells [3] is reported as “died due to apoptosis”. In addition, the “apoptosis or cell necrosis, HL60 cells” value in the experiment on HL60 cells [4] was “both apoptosis and cell necrosis occurred”.
